These results are taken from patent US20240190849A1, “AMINOPYRIMIDINE COMPOUNDS AND METHODS OF THEIR USE” (TYRA BIOSCIENCES, INC., priority 2021, published 2024).

Holding throughout (conditions): FGFR binding data
One assay addresses T1, FGFR1 (Homo sapiens, UniProt P11362).
T1 construct: made in house; host or cells: E. coli derived from BL21, infected with T7 phage
As to the kind of experiment: Kinase binding assay (kinase-tagged T7 phage, affinity beads, qPCR readout), FGFR1. The method, then: (§1) Kinase-tagged T7 phage strains were prepared in an E. coli host derived from the BL21 strain. E. coli were grown to log-phase and infected with T7 phage and incubated with shaking at 32° C. until lysis. The lysates were centrifuged and filtered to remove cell debris. Streptavidin-coated magnetic beads were treated with biotinylated small molecule ligands for 30 minutes at room temperature to generate affinity resins for kinase assays. The liganded beads were blocked with excess biotin and washed with blocking buffer SeaBlock (Pierce), 1% BSA, 0.05% Tween 20, 1 mM DTT to remove unbound ligand and to reduce non-specific binding. Binding reactions were assembled by combining kinases, liganded affinity beads, and test compounds in 1× binding buffer (20% SeaBlock, 0.17×PBS, 0.05% Tween 20, 6 mM DTT).
(§2) Test compounds were prepared as 111× stocks in 100% DMSO. Kds were determined using an 11-point 3-fold compound dilution series with three DMSO control points. All compounds for Kd measurements are distributed by acoustic transfer (non-contact dispensing) in 100% DMSO. The compounds were then diluted directly into the assays such that the final concentration of DMSO was 0.9%. All reactions performed in polypropylene 384-well plate. Each was a final volume of 0.02 ml. The assay plates were incubated at room temperature with shaking for 1 hour and the affinity beads were washed with wash buffer (1×PBS, 0.05% Tween 20). The beads were then re-suspended in elution buffer (1×PBS, 0.05% Tween 20, 0.5 μM non-biotinylated affinity ligand) and incubated at room temperature with shaking for 30 minutes. The kinase concentration in the eluates was measured by qPCR.
(§3) Binding constants were calculated with a standard dose-response curve using the Hill equation: […]
(§4) The Hill Slope was set to −1. Curves were fitted using a non-linear least square fit with the Levenberg-Marquardt algorithm.

Another assay addresses T2, FGFR2 (Homo sapiens, UniProt P21802).
T2 construct: made in house; host or cells: E. coli derived from BL21, infected with T7 phage
As to the kind of experiment: Kinase binding assay (kinase-tagged T7 phage, affinity beads, qPCR readout), FGFR2. On the procedure:
as §1, §2, §3, §4

A further assay deals with T3, FGFR3 (Homo sapiens, UniProt P22607).
T3 construct: made in house; host or cells: E. coli derived from BL21, infected with T7 phage
As to the kind of experiment: Kinase binding assay (kinase-tagged T7 phage, affinity beads, qPCR readout), FGFR3. On the procedure:
as §1, §2, §3, §4

For a further assay, the target named is T4, FGFR3 (V555M) (Homo sapiens, UniProt P22607, V555M).
T4 construct: made in house; host or cells: E. coli derived from BL21, infected with T7 phage
As to the kind of experiment: Kinase binding assay (kinase-tagged T7 phage, affinity beads, qPCR readout), FGFR3 (V555M). On the procedure: as §1, §2, §3, §4

T4 sequence (P22607 23-806 V555M): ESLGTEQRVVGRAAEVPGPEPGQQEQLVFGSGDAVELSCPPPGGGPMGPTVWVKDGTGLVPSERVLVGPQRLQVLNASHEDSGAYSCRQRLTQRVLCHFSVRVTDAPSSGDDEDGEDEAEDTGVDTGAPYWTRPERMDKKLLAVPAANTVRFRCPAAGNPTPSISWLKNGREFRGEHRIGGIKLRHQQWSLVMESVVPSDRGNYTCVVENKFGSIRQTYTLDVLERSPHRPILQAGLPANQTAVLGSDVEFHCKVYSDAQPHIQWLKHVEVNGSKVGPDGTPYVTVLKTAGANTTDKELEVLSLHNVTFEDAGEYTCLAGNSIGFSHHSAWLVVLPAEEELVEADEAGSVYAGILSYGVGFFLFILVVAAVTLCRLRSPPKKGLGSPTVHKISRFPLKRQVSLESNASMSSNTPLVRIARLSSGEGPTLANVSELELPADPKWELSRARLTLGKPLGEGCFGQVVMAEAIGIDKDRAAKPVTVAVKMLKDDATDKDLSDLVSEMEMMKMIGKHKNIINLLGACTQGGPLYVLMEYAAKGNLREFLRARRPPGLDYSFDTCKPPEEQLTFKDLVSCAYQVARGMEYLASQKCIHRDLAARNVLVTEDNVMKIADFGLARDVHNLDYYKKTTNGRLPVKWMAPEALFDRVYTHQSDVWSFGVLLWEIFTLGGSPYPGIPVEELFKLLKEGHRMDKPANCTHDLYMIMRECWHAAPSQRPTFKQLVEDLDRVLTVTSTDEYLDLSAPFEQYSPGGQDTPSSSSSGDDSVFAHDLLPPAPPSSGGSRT
T1 sequence (P11362 22-822): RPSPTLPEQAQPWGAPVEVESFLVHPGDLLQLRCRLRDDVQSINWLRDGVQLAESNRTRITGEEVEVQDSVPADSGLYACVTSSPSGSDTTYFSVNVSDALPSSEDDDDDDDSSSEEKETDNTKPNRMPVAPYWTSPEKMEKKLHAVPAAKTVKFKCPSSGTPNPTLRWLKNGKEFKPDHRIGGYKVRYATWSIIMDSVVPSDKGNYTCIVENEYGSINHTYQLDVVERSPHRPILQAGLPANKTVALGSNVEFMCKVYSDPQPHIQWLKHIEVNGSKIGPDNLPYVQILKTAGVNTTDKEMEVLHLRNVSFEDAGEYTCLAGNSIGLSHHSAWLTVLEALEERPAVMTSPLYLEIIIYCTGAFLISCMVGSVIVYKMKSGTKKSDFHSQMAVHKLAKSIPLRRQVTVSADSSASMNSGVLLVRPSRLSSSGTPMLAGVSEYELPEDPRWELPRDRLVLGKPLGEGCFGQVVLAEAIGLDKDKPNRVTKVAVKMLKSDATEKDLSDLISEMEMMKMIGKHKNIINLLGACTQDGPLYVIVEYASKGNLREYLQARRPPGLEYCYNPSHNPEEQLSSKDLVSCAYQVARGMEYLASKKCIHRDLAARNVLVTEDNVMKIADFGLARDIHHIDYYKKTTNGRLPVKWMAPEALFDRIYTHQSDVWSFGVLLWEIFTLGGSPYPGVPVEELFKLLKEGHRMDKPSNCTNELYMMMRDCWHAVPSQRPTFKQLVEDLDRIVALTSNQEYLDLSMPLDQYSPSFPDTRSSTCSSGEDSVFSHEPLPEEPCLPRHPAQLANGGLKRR
T2 sequence (P21802 22-821): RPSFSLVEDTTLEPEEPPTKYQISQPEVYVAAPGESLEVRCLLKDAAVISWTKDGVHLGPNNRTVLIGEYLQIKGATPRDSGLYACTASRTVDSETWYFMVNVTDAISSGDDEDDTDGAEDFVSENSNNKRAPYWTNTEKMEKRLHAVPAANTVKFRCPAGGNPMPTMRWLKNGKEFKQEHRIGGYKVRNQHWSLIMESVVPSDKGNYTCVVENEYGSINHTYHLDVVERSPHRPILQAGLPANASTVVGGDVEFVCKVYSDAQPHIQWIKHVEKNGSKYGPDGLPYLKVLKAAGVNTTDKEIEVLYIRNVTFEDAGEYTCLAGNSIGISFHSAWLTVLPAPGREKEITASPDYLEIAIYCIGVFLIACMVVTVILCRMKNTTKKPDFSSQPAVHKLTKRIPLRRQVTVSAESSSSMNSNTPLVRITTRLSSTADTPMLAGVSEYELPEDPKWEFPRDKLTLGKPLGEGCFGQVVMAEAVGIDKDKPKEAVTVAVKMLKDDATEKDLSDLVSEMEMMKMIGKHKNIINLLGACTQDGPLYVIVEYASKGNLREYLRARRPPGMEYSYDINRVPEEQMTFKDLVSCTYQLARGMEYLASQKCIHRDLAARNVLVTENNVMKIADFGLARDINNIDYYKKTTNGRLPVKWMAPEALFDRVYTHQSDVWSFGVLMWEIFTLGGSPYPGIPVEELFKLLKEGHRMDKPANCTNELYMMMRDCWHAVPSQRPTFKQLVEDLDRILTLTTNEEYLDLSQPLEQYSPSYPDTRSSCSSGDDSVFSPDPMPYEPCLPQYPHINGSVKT
T3 sequence (P22607 23-806): as the sequence (P22607 23-806 V555M) above, with M533V counted along it

For `C=CC(=O)Nc1ccc2c(c1)c(C)cn2-c1nc(Nc2ccccc2OCC)ncc1C#N` [Example 39, N-[1-[5-cyano-2-(2-ethoxyanilino)pyrimidin-4-yl]-3-methyl-indol-5-yl]prop-2-enamide], the Kd on FGFR1, on FGFR2, at FGFR3 and at FGFR3 (V555M) was more than 1000 nM throughout.

As to `C=CC(=O)Nc1ccc2c(-c3nc(Nc4ccc(N5CCOCC5)nc4)ncc3Cl)cn(C)c2c1` [Example 45, N-[3-[5-chloro-2-[(6-morpholino-3-pyridyl)amino]pyrimidin-4-yl]-1-methyl-indol-6-yl]prop-2-enamide], the Kd on FGFR1, on FGFR2, at FGFR3 and at FGFR3 (V555M) was 0.1 to 100 nM in each case.

On to `C=CC(=O)Nc1ccc2c(c1)c(C)cn2-c1nc(Nc2ccc(N3CCOCC3)c(OC)c2)ncc1C` [Example 46, N-[1-[2-(3-methoxy-4-morpholino-anilino)-5-methyl-pyrimidin-4-yl]-3-methyl-indol-5-yl]prop-2-enamide], for which the Kd on FGFR1, on FGFR2, at FGFR3 and on FGFR3 (V555M) was 0.1 to 100 nM throughout.

As for `C=CC(=O)Nc1ccc2c(c1)c(C)cn2-c1nc(Nc2ccc3ncnn3c2)ncc1Cl` [Example 47, N-[1-[5-chloro-2-([1,2,4]triazolo[1,5-a]pyridin-6-ylamino)pyrimidin-4-yl]-3-methyl-indol-5-yl]prop-2-enamide], the Kd at FGFR1 lay within 100 to 250 nM; at FGFR2, 0.1 to 100 nM; on FGFR3 it was 0.1 to 100 nM; on FGFR3 (V555M), 0.1 to 100 nM.

On to `C=CC(=O)Nc1ccc2c(-c3nc(Nc4ccc(N5CCN(C)CC5)c(OC)c4)ncc3Cl)cn(C)c2c1` [Example 48, N-[3-[5-chloro-2-[3-methoxy-4-(4-methylpiperazin-1-yl)anilino]-pyrimidin-4-yl]-1-methyl-indol-6-yl]prop-2-enamide], for which the Kd on FGFR1, at FGFR2, on FGFR3 and at FGFR3 (V555M) was 0.1 to 100 nM in each case.

Consider `C=CC(=O)Nc1ccc2c(-c3nc(Nc4ccc(N5CCOCC5)c(OC)c4)ncc3Cl)cn(C)c2c1` [Example 51, N-[3-[5-chloro-2-(3-methoxy-4-morpholino-anilino)pyrimidin-4-yl]-1-methyl-indol-6-yl]prop-2-enamide], for which the Kd at FGFR1, at FGFR2, at FGFR3 and on FGFR3 (V555M) was 0.1 to 100 nM in each case.

Regarding `C=CC(=O)Nc1ccc2c(-c3nc(Nc4ccc(N5CCOCC5)cc4)ncc3C)cn(C)c2c1` [Example 52, N-[1-Methyl-3-[5-methyl-2-(4-morpholinoanilino)pyrimidin-4-yl]indol-6-yl]prop-2-enamide], the Kd at FGFR1, at FGFR2, on FGFR3 and on FGFR3 (V555M) was 0.1 to 100 nM each time.

`C=CC(=O)Nc1ccc2c(c1)c(C)cn2-c1nc(Nc2cc(C)nn2C)ncc1Cl` [Example 56, N-[1-[5-chloro-2-[(2,5-dimethylpyrazol-3-yl)amino]-pyrimidin-4-yl]-3-methyl-indol-5-yl]prop-2-enamide]: the Kd lay in the range of 100 to 250 nM at FGFR1, 0.1 to 100 nM on FGFR2, 0.1 to 100 nM on FGFR3 and 0.1 to 100 nM at FGFR3 (V555M).

As to `C=CC(=O)Nc1ccc2c(-c3nc(Nc4ccc(N(C)CCN(C)C)c(OC)c4)ncc3Cl)cn(C)c2c1` [Example 58, N-[3-[5-chloro-2-[4-[2-(dimethylamino)ethyl-methyl-amino]-3-methoxy-anilino]-pyrimidin-4-yl]-1-methyl-indol-6-yl]prop-2-enamide], the Kd on FGFR1, on FGFR2, on FGFR3 and at FGFR3 (V555M) was 0.1 to 100 nM in each case.
